Consider 6 molecules from patent publication US4554367A, “Phosphonium organohalogenostannates-IV” (priority 1982, dated 1985).

The test system of one assay is Proteus vulgaris. The experiment in a line: MIC against bacteria, strain A. The assay is classed as cell-based. To be noted: 24 h, 30° C., tested at 100 or 300 mg/liter. How it is done: (§1) Determination of the minimum inhibitory concentration (MIC) against bacteria
(§2) ONCs (cultures incubated overnight) of the bacteria strains A-F grown in Caso-Peptone broth (Merck) are each diluted […] in saline. An amount of the suspension is introduced into Caso-Peptone broth such that the bacteria are again diluted 1:1,000. The cultures are treated with 100 or 300 mg/liter of the phosphonium stannates shown in Table B. After incubation at 30° C. in a shaking water bath for 24 hours, the cultures are evaluated on the basis of cloudiness. The MIC is the concentration at which the broth is not clouded by bacterial growth.

Another assay has as its system Pseudomonas aeruginosa. The experiment in a line: MIC against bacteria, strain B. The assay is classed as cell-based. To be noted: 24 h, 30° C., tested at 100 or 300 mg/liter. How it is done:
as §1, §2

In a further assay the test system is Enterobacter aerogenes. The experiment in a line: MIC against bacteria, strain C. The assay is classed as cell-based. The following applies: 24 h, 30° C., tested at 100 or 300 mg/liter. As for the experimental part:
as §1, §2

The subject of a further assay is Serratia marcenscens. Briefly: MIC against bacteria, strain D. The assay is classed as cell-based. To be noted: 24 h, 30° C., tested at 100 or 300 mg/liter. How it is done: as §1, §2
Assay [1] has as its system Alkaligenes denitrificans. Briefly: MIC against bacteria, strain E. The assay is classed as cell-based. The following applies: 24 h, 30° C., tested at 100 or 300 mg/liter. How it is done:
as §1, §2

The next assay relates to Bacillus subtilis. Briefly: MIC against bacteria, strain F. The assay is classed as cell-based. To be noted: 24 h, 30° C., tested at 100 or 300 mg/liter. As for the experimental part: as §1, §2
A further assay concerns Aspergillus niger. Briefly: MIC against fungi, strain G. The assay is classed as cell-based. To be noted: malt extract agar. How it is done:
(§3) Determination of the minimum inhibitory concentration (MIC) against fungi
(§4) The investigation is carried out in malt extract agar (Merck) by the known agar incorporation test using the fungi

The next assay has as its system Aspergillus phoenicia. Briefly: MIC against fungi, strain H. The assay is classed as cell-based. To be noted: malt extract agar. As for the experimental part: as §3, §4
(§5) For inhibition, the various compounds are in each case added in amounts such that concentrations of […] results in the agar. The concentrations (mg/liter) required for inhibition of the growth of the fungi (starting from traces of fungi dripped on) are illustrated in Table D.

Another assay has as its system Penicillium funiculosum. The experiment in a line: MIC against fungi, strain I. The assay is classed as cell-based. To be noted: malt extract agar. How it is done: as §3, §4
I Penicillium funiculosum
as §5

A further assay has as its system Alternaria alternata. Briefly: MIC against fungi, strain J. To be noted: malt extract agar. The assay is classed as cell-based. How it is done:
as §3, §4, §5

The subject of assay [2] is Cladosporium cladosporioides. The experiment in a line: MIC against fungi, strain K. The assay is classed as cell-based. To be noted: malt extract agar. How it is done: as §3, §4
K Cladosporium cladosporioides
as §5

In a further assay the test system is Candida albicans. The experiment in a line: MIC against fungi, strain L. The assay is classed as cell-based. The following applies: malt extract agar. As for the experimental part:
as §3, §4, §5

The next assay relates to Endomyces geotrichum. The experiment in a line: MIC against fungi, strain M. The assay is classed as cell-based. The following applies: malt extract agar. As for the experimental part:
as §3, §4, §5

The subject of another assay is Aureobasidium pullulans. The experiment in a line: MIC against fungi, strain N. The assay is classed as cell-based. The following applies: malt extract agar. As for the experimental part: as §3, §4
N Aureobasidium pullulans
as §5

The subject of another assay is Chaetomium globosum. The experiment in a line: MIC against fungi, strain O. The following applies: malt extract agar. The assay is classed as cell-based. As for the experimental part: as §3, §4, §5
The next assay relates to Chlorella vulgaris. Briefly: Action against Chlorella vulgaris. Also noted: key to Growth in the medium: 1: no growth in the medium, 3 ppm have a growthinhibiting action; key to Growth on the agar: 2: no growth on the agar, 3 ppm have destroyed the algae within 6 hours. The following applies: 3 mg/liter; for Growth on the agar: 6 hours exposure (algae-destruction action); for Growth in the medium: 14 days (inhibition of growth). The assay is classed as cell-based. As for the experimental part:
Determination of the action against algae
A Chlorella vulgaris culture grown for 14 days in algae nutrient medium is diluted 1:200 in algae nutrient medium. Each of the compounds listed in Table E is then added such that a concentration of 3 mg/liter results. After incubation for 6 hours, 10 μl are in each case withdrawn and dripped onto algae agar in order to determine the destructive action.

The next assay deals with Artemia salina. Briefly: Action against Artemia salina. The assay is classed as in vivo. Also noted: key: 0: nauplii not affected; 1: slight change; 1-2: nauplii affected; 2: nauplii severely affected; 2-3: almost all nauplii dead; 3: all nauplii dead. The text has this:
Determination of the action against Artemia salina
The commercially available eggs are caused to hatch under powerful aeration. […]

Molecules are shown by their SMILES.

Usually MIC stands for the smallest concentration in the dilution series that meets the test's criterion for growth inhibition. Turning to `CCCCCCCCCCCCCC[P+](CCCC)(CCCC)CCCC.CCCCCCCCCCCCCC[P+](CCCC)(CCCC)CCCC.[CH3][Sn-2]([CH3])([Cl])([Cl])([Cl])[Cl]` [Example 21], the MIC (in the assay with Proteus vulgaris; against Pseudomonas aeruginosa; with Enterobacter aerogenes; against Serratia marcenscens; in [1]; in the assay on Bacillus subtilis) was 100 mg/L each time. Moreover, the MIC against fungi in the assay on Aspergillus niger stood at 50 mg/L; with Aspergillus phoenicia, 50 mg/L; in the assay on Penicillium funiculosum, 10 mg/L; against Alternaria alternata, 50 mg/L; in assay [2], 10 mg/L; against Candida albicans, 10 mg/L. Also, the MIC against fungi against Endomyces geotrichum, in the assay with Aureobasidium pullulans and against Chaetomium globosum was 10 mg/L each time. The “Growth on the agar” value in the assay with Chlorella vulgaris stood at 2. In addition, the “Growth in the medium” value in the assay with Chlorella vulgaris came out at 1. Besides, the “Action against Artemia salina” value is 1-2 with Artemia salina (0.25 mg/liter, 6 hours); 3 in the assay on Artemia salina (0.25 mg/liter, 24 hours); 3 in the assay with Artemia salina (0.25 mg/liter, 48 hours); 1-2 in the assay with Artemia salina (0.5 mg/liter, 6 hours); 2 in the assay on Artemia salina (0.5 mg/liter, 24 hours); 3 with Artemia salina (0.5 mg/liter, 48 hours). The “Action against Artemia salina” value is recorded as 1-2 with Artemia salina (1 mg/liter, 6 hours); 3 in the assay with Artemia salina (1 mg/liter, 24 hours); 3 in the assay with Artemia salina (1 mg/liter, 48 hours); 1-2 with Artemia salina (2.5 mg/liter, 6 hours); 3 in the assay on Artemia salina (2.5 mg/liter, 24 hours); 3 in the assay on Artemia salina (2.5 mg/liter, 48 hours).

As for `CCCCCCCCCCCCCC[P+](CCCC)(CCCC)CCCC.[CH3][Sn-]([Cl])([Cl])([Cl])[Cl]` [Example 22], the MIC (against Proteus vulgaris; in the assay with Pseudomonas aeruginosa; against Enterobacter aerogenes; in the assay on Serratia marcenscens; in [1]; with Bacillus subtilis) was 100 mg/L each time. Further, the MIC against fungi stood at 50 mg/L against Aspergillus niger; 50 mg/L in the assay on Aspergillus phoenicia; 10 mg/L with Penicillium funiculosum; 50 mg/L with Alternaria alternata; 10 mg/L in assay [2]; 10 mg/L against Candida albicans. Besides, the MIC against fungi with Endomyces geotrichum, against Aureobasidium pullulans and in the assay with Chaetomium globosum was 10 mg/L throughout. Besides, the “Growth on the agar” value in the assay on Chlorella vulgaris is given as 2. Besides, in the assay with Chlorella vulgaris, the “Growth in the medium” value is 1. The “Action against Artemia salina” value with Artemia salina (0.25 mg/liter, 6 hours) is recorded as 0; in the assay with Artemia salina (0.25 mg/liter, 24 hours), 1-2; in the assay on Artemia salina (0.25 mg/liter, 48 hours), 2-3; in the assay with Artemia salina (0.5 mg/liter, 6 hours) it was 1-2; with Artemia salina (0.5 mg/liter, 24 hours) it was 3; in the assay on Artemia salina (0.5 mg/liter, 48 hours), 3. For the same molecule, the “Action against Artemia salina” value with Artemia salina (1 mg/liter, 6 hours) is given as 1-2; in the assay on Artemia salina (1 mg/liter, 24 hours) it was 3; in the assay on Artemia salina (1 mg/liter, 48 hours), 3; with Artemia salina (2.5 mg/liter, 6 hours) it was 1-2; in the assay with Artemia salina (2.5 mg/liter, 24 hours), 3; with Artemia salina (2.5 mg/liter, 48 hours), 3.

For `CCCCCCCCCCCCCC[P+](CCCC)(CCCC)CCCC.CCCCCCCCCCCCCC[P+](CCCC)(CCCC)CCCC.[CH3][Sn-2]([Cl])([Cl])([Cl])([Cl])[Cl]` [Example 23], the MIC (against Proteus vulgaris; in the assay on Pseudomonas aeruginosa; against Enterobacter aerogenes; against Serratia marcenscens; in [1]; in the assay with Bacillus subtilis) was 100 mg/L in each case. For the same molecule, the MIC against fungi with Aspergillus niger stood at 50 mg/L; with Aspergillus phoenicia, 50 mg/L; against Penicillium funiculosum, 10 mg/L; against Alternaria alternata, 50 mg/L; in assay [2] it was 10 mg/L; against Candida albicans, 10 mg/L. The MIC against fungi in the assay with Endomyces geotrichum, in the assay on Aureobasidium pullulans and in the assay with Chaetomium globosum was 10 mg/L each time. Also, the “Growth on the agar” value with Chlorella vulgaris was 2. In addition, the “Growth in the medium” value with Chlorella vulgaris is reported as 1. The “Action against Artemia salina” value with Artemia salina (0.25 mg/liter, 6 hours) is on record as 0; in the assay with Artemia salina (0.25 mg/liter, 24 hours) it was 1-2; with Artemia salina (0.25 mg/liter, 48 hours) it was 2-3; in the assay with Artemia salina (0.5 mg/liter, 6 hours), 1-2; with Artemia salina (0.5 mg/liter, 24 hours), 2-3; in the assay on Artemia salina (0.5 mg/liter, 48 hours), 3. Moreover, the “Action against Artemia salina” value in the assay with Artemia salina (1 mg/liter, 6 hours) is 1-2; with Artemia salina (1 mg/liter, 24 hours) it was 3; in the assay on Artemia salina (1 mg/liter, 48 hours) it was 3; in the assay on Artemia salina (2.5 mg/liter, 6 hours), 1-2; in the assay on Artemia salina (2.5 mg/liter, 24 hours) it was 3; with Artemia salina (2.5 mg/liter, 48 hours), 3.

Regarding `CCCCCCCCCCCCCC[P+](CCCC)(CCCC)CCCC.CCC[CH2][Sn-]([Cl])([Cl])([Cl])[Cl]` [Example 24], the MIC (in the assay on Proteus vulgaris; against Pseudomonas aeruginosa; in the assay on Enterobacter aerogenes; against Serratia marcenscens; in [1]; in the assay with Bacillus subtilis) was 100 mg/L in each case. Further, the MIC against fungi against Aspergillus niger was more than 100 mg/L; against Aspergillus phoenicia, more than 100 mg/L; against Penicillium funiculosum, 10 mg/L; against Alternaria alternata, more than 100 mg/L; in assay [2], 10 mg/L; in the assay with Candida albicans, 50 mg/L. Moreover, the MIC against fungi against Endomyces geotrichum was 50 mg/L; against Aureobasidium pullulans, 10 mg/L; in the assay on Chaetomium globosum, 50 mg/L. Moreover, the “Growth on the agar” value in the assay on Chlorella vulgaris was found to be 2. The “Growth in the medium” value in the assay on Chlorella vulgaris came out at 1.

For the molecule `CCCCCCCCCCCCCC[P+](CCCC)(CCCC)CCCC.CCCCCCCCCCCCCC[P+](CCCC)(CCCC)CCCC.CCC[CH2][Sn-2]([Cl])([Cl])([Cl])([Cl])[Cl]` [Example 25], the minimum inhibitory concentration (MIC) (in the assay with Proteus vulgaris; against Pseudomonas aeruginosa; against Enterobacter aerogenes; with Serratia marcenscens; in assay [1]; against Bacillus subtilis) was 100 mg/L throughout. The MIC against fungi was 100 mg/L in the assay with Aspergillus niger; more than 100 mg/L in the assay with Aspergillus phoenicia; 10 mg/L against Penicillium funiculosum; 100 mg/L with Alternaria alternata; 10 mg/L in assay [2]; 50 mg/L in the assay with Candida albicans. For the same molecule, the MIC against fungi against Endomyces geotrichum was determined as 10 mg/L; in the assay with Aureobasidium pullulans, 10 mg/L; against Chaetomium globosum, 50 mg/L. Moreover, the “Growth on the agar” value in the assay with Chlorella vulgaris was determined as 2. In addition, in the assay with Chlorella vulgaris, the “Growth in the medium” value was 1.

`CCCC[P+](CCCC)(CCCC)CCCC.CCC[CH2][Sn-]([Cl])([Cl])([CH2]CCC)[CH2]CCC` [Example 45]: the MIC against fungi (against Aspergillus niger; with Aspergillus phoenicia; against Penicillium funiculosum; against Alternaria alternata; in assay [2]; against Candida albicans) was 10 mg/L in each case. In addition, the MIC against fungi against Endomyces geotrichum, against Aureobasidium pullulans and with Chaetomium globosum was 10 mg/L in each case. Besides, in the assay on Chlorella vulgaris, the “Growth on the agar” value was found to be 2. Also, the “Growth in the medium” value with Chlorella vulgaris was 1.
